Source: patent US10245261B2, “Substituted indol-5-ol derivatives and their therapeutic applications” (NantBioScience, Inc., priority 2013, dated 2019)

Tests used:
Assay in all cases: KinaseProfiler kinase assay
Type in all cases: biochemical
[1] = target: KDR(h) (Homo sapiens, UniProt P35968)
[2] = target: T1, Aurora-A(h) (Homo sapiens, UniProt O14965); settings: read-out: % Inhibition @1 μM Auroro-A
T1 sequence (O14965 1-403): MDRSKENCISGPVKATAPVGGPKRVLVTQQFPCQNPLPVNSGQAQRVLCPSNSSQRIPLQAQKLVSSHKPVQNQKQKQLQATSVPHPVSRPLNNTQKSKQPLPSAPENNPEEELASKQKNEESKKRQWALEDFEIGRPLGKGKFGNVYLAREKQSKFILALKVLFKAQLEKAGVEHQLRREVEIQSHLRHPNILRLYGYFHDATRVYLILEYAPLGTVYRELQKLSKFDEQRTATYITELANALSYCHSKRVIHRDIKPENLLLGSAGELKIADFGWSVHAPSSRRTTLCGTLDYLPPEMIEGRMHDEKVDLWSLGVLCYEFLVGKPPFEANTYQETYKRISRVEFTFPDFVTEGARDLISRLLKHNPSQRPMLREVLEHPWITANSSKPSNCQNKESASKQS
Method: (§1) This example tests the inhibitory properties of representative compounds of the invention in c-Src kinase, Aurora-A kinase, Flt3 kinase, Ret kinase and TrkA Kinase assays (see, Daniele Fancelli et al, J. Med. Chem., 2006, 49 (24), pp 7247-7251). The KinaseProfiler™ Service Assay Protocols (Millipore) was used to test the kinase inhibiting activity of novel compounds from this invention. To do this, the buffer composition was as: 20 mM MOPS, 1 mM EDTA, 0.01% Brij-35, 5% Glycerol, 0.1% β-mercaptoethanol, 1 mg/mL BSA. Test compounds were initially dissolved in DMSO at the desired concentration, then serially diluted to the kinase assay buffer. In a final reaction volume of 25 μL, Aurora-A(h) (5-10 mU) is incubated with 8 mM MOPS pH 7.0, 0.2 mM EDTA, 200 μM LRRASLG (Kemptide), 10 mM MgAcetate and [γ^33P-ATP]. The reaction was initiated by the addition of the MgATP mix. After incubation for 40 minute at room temperature, the reaction was stopped by addition of 5 μL of a 3% phosphoric acid solution. 10 μL of the reaction was then spotted onto a P30 filtermat and washed three times for 5 minutes in 50 mM phosphoric acid and once in methanol prior to drying and scintillation counting. Wells containing substrate but no kinase and wells containing a phosphopeptide control were used to set 0% and 100% phosphorylation value, respectively.
(§2) The Kinase Hotspot℠ kinase assay was also used to test the compounds for IC50 or % inhibitions (Reaction Biology Corp.). Inhibitory IC50 values were determined by titration of compound at the optimal kinase concentration (Kinase EC50).

[3] = target: Ret(h) (Homo sapiens, UniProt P07949)
Method: as §1, §2

[4] = target: cSRC(h) (Homo sapiens, UniProt P12931)
Method: as §1, §2

[5] = target: T2, Flt3(h) (Homo sapiens, UniProt P36888)
T2 sequence (P36888 27-993): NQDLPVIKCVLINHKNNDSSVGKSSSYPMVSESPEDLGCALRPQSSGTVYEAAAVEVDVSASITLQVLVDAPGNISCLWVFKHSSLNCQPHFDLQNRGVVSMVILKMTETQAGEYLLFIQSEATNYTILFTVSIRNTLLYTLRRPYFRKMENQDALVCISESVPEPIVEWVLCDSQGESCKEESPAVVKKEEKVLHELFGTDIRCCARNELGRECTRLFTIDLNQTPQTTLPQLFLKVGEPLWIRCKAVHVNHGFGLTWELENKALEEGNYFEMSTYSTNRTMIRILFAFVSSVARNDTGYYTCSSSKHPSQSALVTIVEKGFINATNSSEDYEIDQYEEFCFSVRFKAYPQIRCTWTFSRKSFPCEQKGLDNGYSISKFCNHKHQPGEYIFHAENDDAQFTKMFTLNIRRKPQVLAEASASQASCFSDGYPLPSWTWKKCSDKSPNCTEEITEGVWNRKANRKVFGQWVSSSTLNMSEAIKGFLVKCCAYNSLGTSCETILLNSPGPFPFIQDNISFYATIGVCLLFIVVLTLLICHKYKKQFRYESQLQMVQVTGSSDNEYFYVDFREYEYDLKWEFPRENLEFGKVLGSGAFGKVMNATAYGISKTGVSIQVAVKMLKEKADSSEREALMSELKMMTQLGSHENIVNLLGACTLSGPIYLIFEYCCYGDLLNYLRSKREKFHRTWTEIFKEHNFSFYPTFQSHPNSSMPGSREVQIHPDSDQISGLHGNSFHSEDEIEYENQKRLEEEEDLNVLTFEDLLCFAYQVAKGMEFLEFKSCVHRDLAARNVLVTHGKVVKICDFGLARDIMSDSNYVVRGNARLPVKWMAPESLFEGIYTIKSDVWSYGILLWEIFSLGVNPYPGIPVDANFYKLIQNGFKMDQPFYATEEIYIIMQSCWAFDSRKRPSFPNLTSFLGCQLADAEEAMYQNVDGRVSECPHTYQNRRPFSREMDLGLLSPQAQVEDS
Method: as §1, §2

[6] = target: Abl(h) (Homo sapiens, UniProt P00519)
Sequence of Abl(h) (P00519 whole entry): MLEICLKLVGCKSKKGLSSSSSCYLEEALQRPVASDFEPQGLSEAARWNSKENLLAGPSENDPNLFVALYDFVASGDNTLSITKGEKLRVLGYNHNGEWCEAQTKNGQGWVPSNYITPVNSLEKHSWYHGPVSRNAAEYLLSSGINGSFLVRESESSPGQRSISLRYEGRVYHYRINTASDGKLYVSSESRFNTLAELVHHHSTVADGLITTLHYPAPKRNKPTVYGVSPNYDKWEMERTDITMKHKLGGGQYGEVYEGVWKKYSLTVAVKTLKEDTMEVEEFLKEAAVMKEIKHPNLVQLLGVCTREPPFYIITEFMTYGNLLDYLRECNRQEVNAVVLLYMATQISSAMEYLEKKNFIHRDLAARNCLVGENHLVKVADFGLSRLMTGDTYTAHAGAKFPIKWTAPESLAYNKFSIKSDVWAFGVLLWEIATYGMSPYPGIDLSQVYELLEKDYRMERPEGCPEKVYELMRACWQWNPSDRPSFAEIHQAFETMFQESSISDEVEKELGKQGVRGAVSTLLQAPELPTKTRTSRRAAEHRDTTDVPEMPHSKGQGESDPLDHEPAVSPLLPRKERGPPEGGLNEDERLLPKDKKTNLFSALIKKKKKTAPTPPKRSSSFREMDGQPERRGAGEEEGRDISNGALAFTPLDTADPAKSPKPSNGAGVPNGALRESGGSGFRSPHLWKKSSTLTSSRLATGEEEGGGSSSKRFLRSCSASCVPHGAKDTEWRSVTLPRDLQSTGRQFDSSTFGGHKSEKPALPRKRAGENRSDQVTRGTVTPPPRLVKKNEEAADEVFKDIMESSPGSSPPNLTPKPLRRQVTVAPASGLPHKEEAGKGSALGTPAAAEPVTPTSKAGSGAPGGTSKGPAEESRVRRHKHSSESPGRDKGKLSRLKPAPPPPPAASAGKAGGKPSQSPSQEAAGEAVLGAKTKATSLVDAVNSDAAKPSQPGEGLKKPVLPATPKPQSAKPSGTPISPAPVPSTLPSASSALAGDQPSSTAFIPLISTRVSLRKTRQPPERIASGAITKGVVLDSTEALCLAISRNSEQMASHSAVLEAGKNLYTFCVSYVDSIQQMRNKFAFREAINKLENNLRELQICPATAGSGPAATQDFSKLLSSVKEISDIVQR

Sequence of KDR(h) (P35968 20-1356): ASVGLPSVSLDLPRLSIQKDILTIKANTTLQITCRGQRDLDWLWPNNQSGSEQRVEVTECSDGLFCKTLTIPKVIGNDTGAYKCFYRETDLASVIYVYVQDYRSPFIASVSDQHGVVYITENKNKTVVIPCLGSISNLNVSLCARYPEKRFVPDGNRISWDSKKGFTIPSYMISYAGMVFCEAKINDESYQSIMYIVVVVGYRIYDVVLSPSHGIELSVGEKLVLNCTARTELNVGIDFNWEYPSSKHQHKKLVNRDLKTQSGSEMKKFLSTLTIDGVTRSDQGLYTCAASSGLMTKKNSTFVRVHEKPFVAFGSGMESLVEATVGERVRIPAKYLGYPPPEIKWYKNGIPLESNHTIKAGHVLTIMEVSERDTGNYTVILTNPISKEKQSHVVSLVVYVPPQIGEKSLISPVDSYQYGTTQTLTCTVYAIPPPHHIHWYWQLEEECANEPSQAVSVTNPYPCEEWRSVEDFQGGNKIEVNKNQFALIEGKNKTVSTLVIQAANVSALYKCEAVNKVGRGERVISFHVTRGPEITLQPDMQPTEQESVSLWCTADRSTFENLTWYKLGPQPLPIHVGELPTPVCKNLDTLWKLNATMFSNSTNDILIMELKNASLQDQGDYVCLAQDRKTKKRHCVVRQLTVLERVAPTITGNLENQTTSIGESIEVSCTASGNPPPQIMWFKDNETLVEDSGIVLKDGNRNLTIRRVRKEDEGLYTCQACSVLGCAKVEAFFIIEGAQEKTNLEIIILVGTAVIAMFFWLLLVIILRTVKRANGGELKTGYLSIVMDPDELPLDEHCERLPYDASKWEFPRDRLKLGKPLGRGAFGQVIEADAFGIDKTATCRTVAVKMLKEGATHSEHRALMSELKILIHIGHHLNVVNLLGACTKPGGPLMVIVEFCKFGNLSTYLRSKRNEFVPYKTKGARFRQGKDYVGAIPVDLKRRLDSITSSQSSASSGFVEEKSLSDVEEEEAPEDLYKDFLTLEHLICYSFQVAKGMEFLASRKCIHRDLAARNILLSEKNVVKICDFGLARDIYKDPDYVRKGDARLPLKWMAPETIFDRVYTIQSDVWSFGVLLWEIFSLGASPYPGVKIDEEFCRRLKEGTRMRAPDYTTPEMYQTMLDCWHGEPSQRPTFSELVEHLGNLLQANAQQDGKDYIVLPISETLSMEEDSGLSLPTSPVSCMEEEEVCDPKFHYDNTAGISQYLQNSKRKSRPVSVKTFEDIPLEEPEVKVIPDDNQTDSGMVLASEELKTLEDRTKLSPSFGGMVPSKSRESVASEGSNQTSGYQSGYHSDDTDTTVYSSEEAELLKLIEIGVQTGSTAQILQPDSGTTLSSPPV
Sequence of cSRC(h) (P12931 whole entry): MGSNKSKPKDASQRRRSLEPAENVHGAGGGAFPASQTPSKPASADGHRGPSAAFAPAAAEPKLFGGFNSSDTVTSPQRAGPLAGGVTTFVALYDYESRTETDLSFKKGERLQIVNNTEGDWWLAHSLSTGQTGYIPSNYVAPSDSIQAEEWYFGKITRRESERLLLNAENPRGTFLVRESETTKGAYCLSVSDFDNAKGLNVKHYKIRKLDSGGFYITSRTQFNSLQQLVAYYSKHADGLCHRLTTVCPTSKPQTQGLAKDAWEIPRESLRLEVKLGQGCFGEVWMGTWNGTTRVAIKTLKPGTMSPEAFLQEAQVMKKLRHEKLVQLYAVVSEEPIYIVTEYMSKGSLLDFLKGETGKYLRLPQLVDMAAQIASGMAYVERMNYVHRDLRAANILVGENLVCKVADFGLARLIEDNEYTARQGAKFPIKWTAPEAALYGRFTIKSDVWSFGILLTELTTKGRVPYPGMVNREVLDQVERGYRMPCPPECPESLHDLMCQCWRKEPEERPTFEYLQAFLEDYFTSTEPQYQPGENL
Sequence of Ret(h) (P07949 29-1114): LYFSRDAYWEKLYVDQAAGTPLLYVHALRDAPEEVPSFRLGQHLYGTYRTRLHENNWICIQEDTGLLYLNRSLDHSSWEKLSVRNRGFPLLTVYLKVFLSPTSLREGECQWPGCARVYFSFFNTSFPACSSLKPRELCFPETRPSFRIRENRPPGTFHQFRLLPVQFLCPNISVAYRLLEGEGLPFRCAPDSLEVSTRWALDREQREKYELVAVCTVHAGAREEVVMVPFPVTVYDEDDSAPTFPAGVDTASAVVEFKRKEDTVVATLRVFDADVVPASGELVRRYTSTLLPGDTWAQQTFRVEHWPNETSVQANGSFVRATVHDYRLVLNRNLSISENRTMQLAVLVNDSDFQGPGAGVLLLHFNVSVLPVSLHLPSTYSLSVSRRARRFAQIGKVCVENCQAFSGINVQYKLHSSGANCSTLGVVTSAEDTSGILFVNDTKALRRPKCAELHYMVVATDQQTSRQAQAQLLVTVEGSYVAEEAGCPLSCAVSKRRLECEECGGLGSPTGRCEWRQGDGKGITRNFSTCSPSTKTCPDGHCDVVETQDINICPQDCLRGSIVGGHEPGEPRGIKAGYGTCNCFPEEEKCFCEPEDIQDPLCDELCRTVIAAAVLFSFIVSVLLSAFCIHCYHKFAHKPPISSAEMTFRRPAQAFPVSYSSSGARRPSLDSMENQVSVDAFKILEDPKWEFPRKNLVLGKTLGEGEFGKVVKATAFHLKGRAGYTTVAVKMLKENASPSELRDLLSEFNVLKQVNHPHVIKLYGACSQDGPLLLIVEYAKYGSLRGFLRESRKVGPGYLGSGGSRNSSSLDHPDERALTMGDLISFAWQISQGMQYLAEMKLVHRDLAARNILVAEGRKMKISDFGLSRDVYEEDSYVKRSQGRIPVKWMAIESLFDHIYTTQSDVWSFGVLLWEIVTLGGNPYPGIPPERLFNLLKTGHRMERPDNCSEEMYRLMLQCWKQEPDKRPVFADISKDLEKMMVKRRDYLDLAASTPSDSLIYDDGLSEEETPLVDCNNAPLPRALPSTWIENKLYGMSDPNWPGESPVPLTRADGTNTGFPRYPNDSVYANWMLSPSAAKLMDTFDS

Row | inhibition at 1 µM [1] [%] | inhibition at 1 µM [2] [%] | inhibition at 1 µM [3] [%] | inhibition at 1 µM [4] [%] | inhibition at 1 µM [5] [%] | inhibition at 1 µM [6] [%] | SMILES
1 | 96 | 102 | 102 | 101 | 99 | 111 | C/C=C/c1cc(Nc2cc(N3CCC(N(CC)CC)C3)nc(Oc3ccc4[nH]c(C)cc4c3F)n2)n[nH]1 (stereo not drawn) [Compound 62]
2 | 93 | 101 | 100 | 100 | 100 | 108 | Cc1cc2c(F)c(Oc3nc(Nc4cc(C5CC5)[nH]n4)cc(N4CCN(S(C)(=O)=O)CC4)n3)ccc2[nH]1 [Compound 23]
3 | 91 | 98 | 101 | 96 | 99 | 112 | Cc1cc(Nc2cc(N3CCN(CCO)CC3)nc(Oc3cc(F)c4[nH]c(C)cc4c3F)n2)n[nH]1 [Compound 105]
4 | 96 | 99 | 102 | 100 | 100 | 111 | C/C=C/c1cc(Nc2cc(N3CCN(CCF)CC3)nc(Oc3ccc4[nH]c(C)cc4c3F)n2)n[nH]1 [Compound 74]
5 | 96 | 85 | 100 | 99 | 99 | 108 | C/C=C/c1cc(Nc2cc(N3CCN(CCOC)CC3)nc(Oc3ccc4[nH]c(C)cc4c3F)n2)n[nH]1 [Compound 54]
6 | 91 | 101 | 101 | 104 | 101 | 115 | C/C=C/c1cc(Nc2cc(N3CCN(C)CC3)nc(Oc3ccc4c(cc(C)n4C)c3F)n2)n[nH]1 [Compound 120]
7 | 94 | 87 | 101 | 97 | 99 | 108 | CCC1CN(c2cc(Nc3cc(C4CC4)[nH]n3)nc(Oc3ccc4[nH]c(C)cc4c3F)n2)CCN1 (stereo not drawn) [Compound 41]
8 | 91 | 101 | 101 | 104 | 102 | 109 | Cc1cc2c(F)c(Oc3nc(Nc4cc(C5CC5)[nH]n4)cc(N4CCN(C)CC4)n3)ccc2n1C [Compound 122]
9 | 90 | 97 | 100 | 102 | 100 | 94 | COCC1CCN(c2cc(Nc3cc(C4CC4)[nH]n3)nc(Oc3ccc4[nH]c(C)cc4c3F)n2)C1 (stereo not drawn) [Compound 44]
10 | 97 | 95 | 102 | 100 | 100 | 112 | C/C=C/c1cc(Nc2cc(N3CCC(O)C3)nc(Oc3ccc4[nH]c(C)cc4c3F)n2)n[nH]1 (stereo not drawn) [Compound 61]
11 | 95 | 99 | 102 | 107 | 101 | 107 | Cc1cc2c(F)c(Oc3nc(Nc4cc(C5CC5)[nH]n4)cc(N4CCN(CCF)CC4)n3)ccc2[nH]1 [Compound 45]
12 | 95 | 98 | 102 | 101 | 99 | 110 | C/C=C/c1cc(Nc2cc(N3CCC(OC)CC3)nc(Oc3cc(F)c4[nH]c(C)cc4c3F)n2)n[nH]1 [Compound 96]
13 | 91 | 99 | 100 | 99 | 100 | 112 | C/C=C/c1cc(Nc2cc(N3CCOCC3)nc(Oc3ccc4[nH]c(C)cc4c3F)n2)n[nH]1 [Compound 67]
14 | 96 | 100 | 101 | 100 | 100 | 110 | C/C=C/c1cc(Nc2cc(N3CCC(O)CC3)nc(Oc3cc(F)c4[nH]c(C)cc4c3F)n2)n[nH]1 [Compound 95]
15 | 93 | 100 | 97 | 99 | 100 | 107 | CC(=O)N1CCN(c2cc(Nc3cc(C4CC4)[nH]n3)nc(Oc3ccc4[nH]c(C)cc4c3F)n2)CC1 [Compound 18]
16 | 87 | 100 | 100 | 98 | 101 | 107 | Cc1cc2c(F)c(Oc3nc(Nc4cc(C5CC5)[nH]n4)cc(N4CCC(O)CC4)n3)ccc2[nH]1 [Compound 21]
17 | 91 | 101 | 102 | 103 | 102 | 113 | C/C=C/c1cc(Nc2cc(N3CCN(CC)CC3)nc(Oc3cc(F)c4[nH]c(C)cc4c3F)n2)n[nH]1 [Compound 99]
18 | 96 | 93 | 102 | 101 | 100 | 110 | Cc1cc2c(F)c(Oc3nc(Nc4cc(C5CC5)[nH]n4)cc(N4CCN(CCN(C)C)CC4)n3)ccc2[nH]1 [Compound 42]
19 | 91 | 100 | 102 | 104 | 102 | 113 | C/C=C/c1cc(Nc2cc(N3CCN(C)CC3)nc(Oc3ccc4[nH]c(C)cc4c3Cl)n2)n[nH]1 [Compound 112]
20 | 92 | 101 | 101 | 99 | 100 | 108 | Cc1cc2c(F)c(Oc3nc(Nc4cc(C5CC5)[nH]n4)cc(N4CCN(c5ccncc5)CC4)n3)ccc2[nH]1 [Compound 27]
21 | 96 | 98 | 102 | 100 | 100 | 111 | C/C=C/c1cc(Nc2cc(N3CCN(S(C)(=O)=O)CC3)nc(Oc3cc(F)c4[nH]c(C)cc4c3F)n2)n[nH]1 [Compound 98]
